Data published in PubChem BioAssay AID2060483 (Molecular Pharmacology Branch, DTP, NCI, 2025).

Tested on: K24384-001-R-PDC complex spheroids, viability
Test: Anticancer human tumor K24384-001-R-PDC patient-derived pancreatic adenocarcinoma cell line growth inhibition [GQUAD]
Details: for IC50: curve of first compound; for viability, T/C: stronger effect = lower value
In short: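 Tumor cells were grown as complex spheroids with HUVEC endothelial cells and mesenchymal stem cells as stroma. G-quadruplex stabilizers were combined with targeted agents over half-log dilutions from near the clinical Cmax, or from 10 microM.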

[1] = second compound 0.0316 µM, first compound 0.000999 µM
[2] = second compound 0.0316 µM, first compound 0.00316 µM
[3] = second compound 0.0316 µM, first compound 0.00999 µM
[4] = second compound 0.0316 µM, first compound 0.0316 µM
[5] = second compound 0.0316 µM, first compound 0.0999 µM
[6] = second compound 0.0316 µM, first compound 0.316 µM
[7] = second compound 0.1 µM, first compound 0.000999 µM
[8] = second compound 0.1 µM, first compound 0.00316 µM
[9] = second compound 0.1 µM, first compound 0.00999 µM
[10] = second compound 0.1 µM, first compound 0.0316 µM
[11] = second compound 0.1 µM, first compound 0.0999 µM
[12] = second compound 0.1 µM, first compound 0.316 µM
[13] = second compound 0.316 µM, first compound 0.000999 µM
[14] = second compound 0.316 µM, first compound 0.00316 µM
[15] = second compound 0.316 µM, first compound 0.00999 µM
[16] = second compound 0.316 µM, first compound 0.0316 µM
[17] = second compound 0.316 µM, first compound 0.0999 µM
[18] = second compound 0.316 µM, first compound 0.316 µM
[19] = second compound 1 µM, first compound 0.000999 µM
[20] = second compound 1 µM, first compound 0.00316 µM
[21] = second compound 1 µM, first compound 0.00999 µM
[22] = second compound 1 µM, first compound 0.0316 µM
[23] = second compound 1 µM, first compound 0.0999 µM
[24] = second compound 1 µM, first compound 0.316 µM
[25] = second compound 3.16 µM, first compound 0.000999 µM
[26] = second compound 3.16 µM, first compound 0.00316 µM
[27] = second compound 3.16 µM, first compound 0.00999 µM
[28] = second compound 3.16 µM, first compound 0.0316 µM
[29] = second compound 3.16 µM, first compound 0.0999 µM
[30] = second compound 3.16 µM, first compound 0.316 µM
[31] = second compound 10 µM, first compound 0.000999 µM
[32] = second compound 10 µM, first compound 0.00316 µM
[33] = second compound 10 µM, first compound 0.00999 µM
[34] = second compound 10 µM, first compound 0.0316 µM
[35] = second compound 10 µM, first compound 0.0999 µM
[36] = second compound 10 µM, first compound 0.316 µM
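Further: spheroids exposed to compounds for seven days.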

Structure (SMILES): CC[C@@]1(O)C(=O)OCc2c1cc1n(c2=O)Cc2cc3c(CN(C)C)c(O)ccc3nc2-1 + CN(C)c1ccc(Nc2c3ccc(NC(=O)CCN4CCCC4)cc3nc3cc(NC(=O)CCN4CCCC4)ccc23)cc1
- IC50 (second compound 0.0316 µM): 89.7 nM
- IC50 (second compound 0.1 µM): 95.5 nM
- IC50 (second compound 0.316 µM): 269 nM
- IC50 (second compound 1 µM): 125 nM
- IC50 (second compound 3.16 µM): 153 nM
- IC50 (second compound 10 µM): 155 nM
- viability, T/C [1]: 102%
- viability, T/C [2]: 101%
- viability, T/C [3]: 101%
- viability, T/C [4]: 77.5%
- viability, T/C [5]: 47.8%
- viability, T/C [6]: 42.5%
- viability, T/C [7]: 99.8%
- viability, T/C [8]: 96.7%
- viability, T/C [9]: 103%
- viability, T/C [10]: 74.4%
- viability, T/C [11]: 51.8%
- viability, T/C [12]: 38.8%
- viability, T/C [13]: 96.9%
- viability, T/C [14]: 99.6%
- viability, T/C [15]: 89.1%
- viability, T/C [16]: 89.9%
- viability, T/C [17]: 55.5%
- viability, T/C [18]: 49.2%
- viability, T/C [19]: 99.8%
- viability, T/C [20]: 103%
- viability, T/C [21]: 96%
- viability, T/C [22]: 82.4%
- viability, T/C [23]: 52.4%
- viability, T/C [24]: 39.3%
- viability, T/C [25]: 102%
- viability, T/C [26]: 90.7%
- viability, T/C [27]: 88.5%
- viability, T/C [28]: 93.1%
- viability, T/C [29]: 50.8%
- viability, T/C [30]: 48.6%
- viability, T/C [31]: 103%
- viability, T/C [32]: 103%
- viability, T/C [33]: 105%
- viability, T/C [34]: 109%
- viability, T/C [35]: 57.4%
- viability, T/C [36]: 38%

Structure (SMILES): CCc1c2c(nc3ccc(O)cc13)-c1cc3c(c(=O)n1C2)COC(=O)[C@]3(O)CC + CN(C)c1ccc(Nc2c3ccc(NC(=O)CCN4CCCC4)cc3nc3cc(NC(=O)CCN4CCCC4)ccc23)cc1
- IC50 (second compound 0.0316 µM): 7.33 nM
- IC50 (second compound 0.1 µM): 8.91 nM
- IC50 (second compound 0.316 µM): 5.68 nM
- IC50 (second compound 1 µM): 5.64 nM
- IC50 (second compound 3.16 µM): 3.47 nM
- IC50 (second compound 10 µM): 16.2 nM
- viability, T/C [1]: 80.2%
- viability, T/C [2]: 78.2%
- viability, T/C [3]: 39.6%
- viability, T/C [4]: 32.2%
- viability, T/C [5]: 35.4%
- viability, T/C [6]: 30.3%
- viability, T/C [7]: 69.6%
- viability, T/C [8]: 62.7%
- viability, T/C [9]: 49.7%
- viability, T/C [10]: 34.2%
- viability, T/C [11]: 36.1%
- viability, T/C [12]: 32.3%
- viability, T/C [13]: 73.2%
- viability, T/C [14]: 65.2%
- viability, T/C [15]: 35.2%
- viability, T/C [16]: 42.8%
- viability, T/C [17]: 33.6%
- viability, T/C [18]: 26.3%
- viability, T/C [19]: 69.8%
- viability, T/C [20]: 58.2%
- viability, T/C [21]: 39.9%
- viability, T/C [22]: 39.9%
- viability, T/C [23]: 28.6%
- viability, T/C [24]: 28%
- viability, T/C [25]: 82.3%
- viability, T/C [26]: 51.2%
- viability, T/C [27]: 37%
- viability, T/C [28]: 37.5%
- viability, T/C [29]: 34%
- viability, T/C [30]: 30.9%
- viability, T/C [31]: 70.7%
- viability, T/C [32]: 61.2%
- viability, T/C [33]: 59.4%
- viability, T/C [34]: 37.3%
- viability, T/C [35]: 36.6%
- viability, T/C [36]: 32.8%

Structure (SMILES): COc1cc(C2c3cc4c(cc3C(OC3OC5COC(C)OC5C(O)C3O)C3COC(=O)C23)OCO4)cc(OC)c1O (stereo unspecified) + CN(C)c1ccc(Nc2c3ccc(NC(=O)CCN4CCCC4)cc3nc3cc(NC(=O)CCN4CCCC4)ccc23)cc1
- IC50 (second compound 0.0316 µM): 958 nM
- IC50 (second compound 0.1 µM): 836 nM
- IC50 (second compound 0.316 µM): 762 nM
- IC50 (second compound 1 µM): 807 nM
- IC50 (second compound 3.16 µM): 665 nM
- IC50 (second compound 10 µM): 710 nM
- viability, T/C [4]: 105%
- viability, T/C (second compound 0.0316 µM, first compound 0.1 µM): 87.1%
- viability, T/C [6]: 79.1%
- viability, T/C (second compound 0.0316 µM, first compound 1 µM): 46%
- viability, T/C (second compound 0.0316 µM, first compound 3.16 µM): 36.7%
- viability, T/C (second compound 0.0316 µM, first compound 10 µM): 37.5%
- viability, T/C [10]: 92%
- viability, T/C (second compound 0.1 µM, first compound 0.1 µM): 99.7%
- viability, T/C [12]: 76.8%
- viability, T/C (second compound 0.1 µM, first compound 1 µM): 46.3%
- viability, T/C (second compound 0.1 µM, first compound 3.16 µM): 40.2%
- viability, T/C (second compound 0.1 µM, first compound 10 µM): 41.4%
- viability, T/C [16]: 94.9%
- viability, T/C (second compound 0.316 µM, first compound 0.1 µM): 91%
- viability, T/C [18]: 76.1%
- viability, T/C (second compound 0.316 µM, first compound 1 µM): 40.9%
- viability, T/C (second compound 0.316 µM, first compound 3.16 µM): 45.3%
- viability, T/C (second compound 0.316 µM, first compound 10 µM): 39.5%
- viability, T/C [22]: 93.2%
- viability, T/C (second compound 1 µM, first compound 0.1 µM): 95.3%
- viability, T/C [24]: 81.2%
- viability, T/C (second compound 1 µM, first compound 1 µM): 42.9%
- viability, T/C (second compound 1 µM, first compound 3.16 µM): 43%
- viability, T/C (second compound 1 µM, first compound 10 µM): 38.5%
- viability, T/C [28]: 93.8%
- viability, T/C (second compound 3.16 µM, first compound 0.1 µM): 104%
- viability, T/C [30]: 67.7%
- viability, T/C (second compound 3.16 µM, first compound 1 µM): 46.8%
- viability, T/C (second compound 3.16 µM, first compound 3.16 µM): 36.9%
- viability, T/C (second compound 3.16 µM, first compound 10 µM): 37.2%
- viability, T/C [34]: 94.3%
- viability, T/C (second compound 10 µM, first compound 0.1 µM): 105%
- viability, T/C [36]: 60.9%
- viability, T/C (second compound 10 µM, first compound 1 µM): 59.1%
- viability, T/C (second compound 10 µM, first compound 3.16 µM): 30.8%
- viability, T/C (second compound 10 µM, first compound 10 µM): 46.3%
